Source: publication doi:10.1101/2025.01.28.635346v1 (bioRxiv, 2025)
Bridge positions count the residues as written; N and C are the ends. Peptide text beside a SMILES is read from it.

Experiments:
[1] = Pharmacokinetics in female Balb/c mice; format: in vivo, mouse
NMDAR (1A/2B) = NMDAR (1A/2B) (Homo sapiens, UniProt Q05586+Q13224); experiment: Safetyscan47 Ion Channel, Opener; format: cell-based
[2] = IP 30 mg/kg, mouse, animal 11F031
[3] = IP 30 mg/kg, mouse, animal 11F032
[4] = IP 30 mg/kg, mouse, animal 11F033
[5] = Table 3SA: IP 30 mg/kg, Mean N=2
[6] = female, Balb/c, mouse, plasma, ip, 30 mg/kg

NMDAR (1A/2B), sequence (Q13224 27-1484, other chains not shown): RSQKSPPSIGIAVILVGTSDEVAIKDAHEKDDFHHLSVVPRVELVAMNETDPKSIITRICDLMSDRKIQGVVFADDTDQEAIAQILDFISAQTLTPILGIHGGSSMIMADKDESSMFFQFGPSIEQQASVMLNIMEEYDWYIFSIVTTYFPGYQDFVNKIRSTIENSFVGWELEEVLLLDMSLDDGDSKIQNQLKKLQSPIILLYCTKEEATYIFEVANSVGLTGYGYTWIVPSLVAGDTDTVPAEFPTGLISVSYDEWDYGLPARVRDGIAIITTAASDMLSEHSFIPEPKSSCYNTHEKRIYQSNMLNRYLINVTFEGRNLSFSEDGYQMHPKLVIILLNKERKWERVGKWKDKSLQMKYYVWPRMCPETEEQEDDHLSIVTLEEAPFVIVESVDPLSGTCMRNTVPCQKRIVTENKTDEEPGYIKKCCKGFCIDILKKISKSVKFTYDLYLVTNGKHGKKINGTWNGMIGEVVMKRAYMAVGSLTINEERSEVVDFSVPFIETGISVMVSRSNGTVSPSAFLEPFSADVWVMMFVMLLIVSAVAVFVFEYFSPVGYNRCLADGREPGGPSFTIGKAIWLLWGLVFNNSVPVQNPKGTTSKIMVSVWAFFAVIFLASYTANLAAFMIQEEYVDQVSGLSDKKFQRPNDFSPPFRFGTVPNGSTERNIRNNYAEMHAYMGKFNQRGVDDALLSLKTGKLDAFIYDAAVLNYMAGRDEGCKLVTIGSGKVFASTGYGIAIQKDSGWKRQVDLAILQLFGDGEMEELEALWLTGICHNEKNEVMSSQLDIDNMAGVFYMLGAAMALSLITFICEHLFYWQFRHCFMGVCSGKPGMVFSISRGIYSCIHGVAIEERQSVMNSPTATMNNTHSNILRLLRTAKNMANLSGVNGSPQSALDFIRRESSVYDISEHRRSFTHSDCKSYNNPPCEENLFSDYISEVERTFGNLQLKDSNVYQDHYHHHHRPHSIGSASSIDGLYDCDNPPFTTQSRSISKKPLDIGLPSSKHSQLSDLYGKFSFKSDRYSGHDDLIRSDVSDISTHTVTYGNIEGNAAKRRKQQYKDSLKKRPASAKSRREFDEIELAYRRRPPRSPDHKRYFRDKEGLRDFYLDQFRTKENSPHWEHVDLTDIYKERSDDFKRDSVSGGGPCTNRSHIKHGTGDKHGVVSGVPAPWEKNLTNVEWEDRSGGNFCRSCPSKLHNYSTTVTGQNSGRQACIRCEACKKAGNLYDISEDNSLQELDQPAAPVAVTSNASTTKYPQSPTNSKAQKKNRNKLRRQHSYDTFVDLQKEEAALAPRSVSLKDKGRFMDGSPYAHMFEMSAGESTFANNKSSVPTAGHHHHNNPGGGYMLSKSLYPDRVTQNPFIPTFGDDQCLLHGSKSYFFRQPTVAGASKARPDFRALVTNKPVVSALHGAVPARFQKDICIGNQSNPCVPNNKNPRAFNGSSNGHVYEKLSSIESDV

For CC[C@H](C)[C@H](NC(=O)[C@H](CC(C)C)NC(=O)[C@H](CC(=O)O)NC(=O)CNC(=O)[C@H](CCCNC(=N)N)NC(=O)[C@@H](NC(=O)[C@H](Cc1ccccc1)NC(=O)[C@H](Cc1ccc(O)cc1)NC(=O)[C@@H]1CCC(=O)NCC(=O)NCC(=O)N[C@@H](CCCNC(=N)N)C(=O)NCC(=O)N[C@@H](Cc2c[nH]cn2)C(=O)N[C@@H](C(C)C)C(=O)N2CCC[C@H]2C(=O)N1)C(C)C)C(=O)N[C@@H](CO)C(=O)N[C@@H](Cc1ccccc1)C(=O)N[C@@H](Cc1ccc(O)cc1)C(=O)N[C@@H](CCCCN)C(=O)O [lassotide 36] (GGRGHVPEYFVRGDLISFYK-OH; lactam N-8), which AUCINF [1, 2] is on record?
Its AUCINF is 64500.

What about the AUClast [1, 2] of the same compound?
Its AUClast is 64500.

And the CL/F [1, 2]?
Its CL/F is 7.75.

And the Cmax [1, 2]?
Its Cmax is 21000.

And the Tmax [1, 2]?
The Tmax was 2.0.

And the Vz/F [1, 2]?
The Vz/F was 363.

And the t1/2 [1, 2]?
The t1/2 was 0.54.

What about the AUCINF [1, 3] of the same compound?
The AUCINF was 71700.

And the AUClast [1, 3]?
The AUClast was 69400.

What about the CL/F [1, 3] of the same compound?
The CL/F was 6.97.

And the Cmax [1, 3]?
Its Cmax is 27300.

What about the Tmax [1, 3] of the same compound?
The Tmax was 1.0.

What about the Vz/F [1, 3] of the same compound?
The Vz/F was 389.

What about the t1/2 [1, 3] of the same compound?
Its t1/2 is 0.64.

And the AUClast [1, 4]?
Its AUClast is 885.

And the Cmax [1, 4]?
Its Cmax is 10600.

What about the Tmax [1, 4] of the same compound?
Its Tmax is 0.17.

What about the Vz ([1]; Mouse, 30 mg/kg IP, mean) of the same compound?
The Vz was 0.4 L/kg.

And the AUCINF [1, 5]?
The AUCINF was 68100.

What about the Vz/F [1, 5] of the same compound?
The Vz/F was 376.

And the AUC(0-t) [1, 6]?
The AUC(0-t) was 44900 ng·h/mL.

What about the CL/F [1, 6] of the same compound?
Its CL/F is 7.36 mL/min/kg.

What about the Cmax [1, 6] of the same compound?
The Cmax was 19600 ng/mL.

And the Tmax [1, 6]?
Its Tmax is 1.06 h.

What about the half-life [1, 6] of the same compound?
Its half-life is 35.5 min.

What about the EC50 (NMDAR (1A/2B)) of the same compound?
Its EC50 is greater than 45 µM.

And the Emax (NMDAR (1A/2B); read-out: Max Response)?
Its Emax is 4.66%.
